From patent publication US20240270762A1, “PENICILLIN-BINDING PROTEIN INHIBITORS” (priority 2021, published 2024)

Each molecule was assayed against T1, PBP3 from Acinetobacter baumannii (ATCC 19606) (Acinetobacter baumannii, UniProt A0ABX6CK25) (assay: Bocillin-FL fluorescence polarization competition binding, A. baumannii PBP3). Conditions: fluorescence polarization competition binding assay using Bocillin-FL; read-out: A. baumannii PBP3 Potency.
T1 sequence (A0ABX6CK25 64-610): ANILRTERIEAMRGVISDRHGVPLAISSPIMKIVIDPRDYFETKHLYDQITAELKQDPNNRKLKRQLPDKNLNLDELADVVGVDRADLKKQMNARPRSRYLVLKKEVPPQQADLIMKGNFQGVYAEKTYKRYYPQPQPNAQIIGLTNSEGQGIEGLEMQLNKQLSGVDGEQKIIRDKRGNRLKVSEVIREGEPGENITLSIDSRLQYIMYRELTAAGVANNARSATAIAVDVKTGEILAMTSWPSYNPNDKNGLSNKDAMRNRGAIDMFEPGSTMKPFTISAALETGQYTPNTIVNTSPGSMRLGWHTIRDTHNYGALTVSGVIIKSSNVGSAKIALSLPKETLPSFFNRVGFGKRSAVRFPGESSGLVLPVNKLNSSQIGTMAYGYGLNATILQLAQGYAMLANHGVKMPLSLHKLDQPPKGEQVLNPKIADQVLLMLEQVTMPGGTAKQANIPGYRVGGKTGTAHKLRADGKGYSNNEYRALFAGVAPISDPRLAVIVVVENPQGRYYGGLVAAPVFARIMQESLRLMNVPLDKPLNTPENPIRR
Method in brief: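 Purified PBP was preincubated with inhibitor (E. coli PBP3 1.5 μM, 30 min; P. aeruginosa PBP3 0.75 μM, A. baumannii PBP3 0.2 μM and PBP1a 1 μM, 15 min), then Bocillin-FL (0.1 μM; 0.05 μM for PBP1a) added and FP read up to 60 min. EC50 = 50% loss of bound probe.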

**Q.** `O=C(O)c1c(F)ccc2c1OB(O)[C@@H](NC(=O)[C@H](NC(=O)N1CCN(C3CCN(C(=O)c4ccncc4)CC3)C1=O)c1cc(F)c(O)c(O)c1Cl)C2` [Example 461, (R)-3-((R)-2-(2-chloro-5-fluoro-3,4-dihydroxyphenyl)-2-(3-(1-isonicotinoylpiperidin-4-yl)-2-oxoimidazolidine-1-carboxamido)acetamido)-7-fluoro-2-hydroxy-3,4-dihydro-2H-benzo[e][1,2]oxaborinine-8-carboxylic acid] was tested. Which IC50 did it give?
**A.** < 10 µM

**Q.** With `O=C(O)c1c(F)ccc2c1OB(O)[C@@H](NC(=O)[C@H](NC(=O)N1CCN(C3CCN(C(=O)c4cccc(O)c4)CC3)C1=O)c1cc(F)c(O)c(O)c1Cl)C2` (single isomer, unassigned) [Example 430] as the molecule, how does the IC50 read?
**A.** < 10 µM

**Q.** How did the IC50 turn out when `O=C(O)c1c(F)ccc2c1OB(O)[C@@H](NC(=O)[C@H](NC(=O)N1CCN(C3CCN(C(=O)c4c(F)ccc(O)c4F)CC3)C1=O)c1cc(F)c(O)c(O)c1Cl)C2` (single isomer, unassigned) [Example 439] was run?
**A.** < 10 µM

**Q.** For `O=C(O)c1c(F)ccc2c1OB(O)[C@@H](NC(=O)[C@H](NC(=O)N1CCN(C3CCN(C(=O)c4cc(O)c(F)c(O)c4F)CC3)C1=O)c1cc(F)c(O)c(O)c1Cl)C2` (single isomer, unassigned) [Example 444], which IC50 is on record?
**A.** < 10 µM

**Q.** How did the IC50 turn out when `O=C(O)c1c(F)ccc2c1OB(O)[C@@H](NC(=O)[C@H](NC(=O)N1CCN(C3CCN(C(=O)c4cc(O)c(F)c(O)c4)CC3)C1=O)c1cc(F)c(O)c(O)c1Cl)C2` (single isomer, unassigned) [Example 443] was run?
**A.** < 10 µM

**Q.** For `O=C(O)c1c(F)ccc2c1OB(O)[C@@H](NC(=O)[C@H](NC(=O)N1CCN(C3CCN(C(=O)c4ccc(F)c(O)c4F)CC3)C1=O)c1cc(F)c(O)c(O)c1Cl)C2` (single isomer, unassigned) [Example 437], which IC50 is on record?
**A.** < 10 µM

**Q.** How did the IC50 turn out when `O=C(O)c1c(F)ccc2c1OB(O)[C@@H](NC(=O)C(NC(=O)N1CCN(C3CCN(C(=O)Nc4ccc(F)c(O)c4F)CC3)C(=O)C1=O)c1cc(F)c(O)c(O)c1Cl)C2` (stereo partly drawn) [Example 486, (3R)-3-(2-(2-chloro-5-fluoro-3,4-dihydroxyphenyl)-2-(4-(1-((2,4-difluoro-3-hydroxyphenyl)carbamoyl)piperidin-4-yl)-2,3-dioxopiperazine-1-carboxamido)acetamido)-7-fluoro-2-hydroxy-3,4-dihydro-2H-benzo[e][1,2]oxaborinine-8-carboxylic acid] was run?
**A.** < 10 µM

**Q.** Which IC50 does the source give for `O=C(O)c1c(F)ccc2c1OB(O)[C@@H](NC(=O)[C@H](NC(=O)N1CCN(C3CCN(C(=O)Nc4ccc(O)cc4)CC3)C(=O)C1=O)c1cc(F)c(O)c(O)c1Cl)C2` (single isomer, unassigned) [Example 426] here?
**A.** < 10 µM

**Q.** `O=C(O)c1c(F)ccc2c1OB(O)[C@@H](NC(=O)[C@H](NC(=O)N1CCN(C3CCN(C(=O)c4cccc(O)c4F)CC3)C1=O)c1cc(F)c(O)c(O)c1Cl)C2` (single isomer, unassigned) [Example 431] was tested. Which IC50 did it give?
**A.** < 10 µM

**Q.** `O=C(NCCCS(=O)(=O)N1CCN(C(=O)N[C@H](C(=O)N[C@H]2Cc3ccc(F)c(C(=O)O)c3OB2O)c2ccc(P(=O)(O)O)cc2)C1=O)c1ccc(O)c(O)c1Cl` (single isomer, unassigned) [Example 169] was tested. Which IC50 did it give?
**A.** 10 to 50 µM

**Q.** Which IC50 does the source give for `O=C(O)c1c(F)ccc2c1OB(O)[C@@H](NC(=O)[C@H](NC(=O)N1CCN(C3CCN(C(=O)c4ccc(F)c(O)c4)CC3)C1=O)c1cc(F)c(O)c(O)c1Cl)C2` (single isomer, unassigned) [Example 435] here?
**A.** 10 to 50 µM

**Q.** For `O=C(O)c1c(F)ccc2c1OB(O)[C@@H](NC(=O)[C@H](NC(=O)N1CCN(C3CCN(C(=O)c4ccc(O)cc4)CC3)C1=O)c1cc(F)c(O)c(O)c1Cl)C2` (single isomer, unassigned) [Example 463], which IC50 is on record?
**A.** < 10 µM

**Q.** `O=C(O)c1c(F)ccc2c1OB(O)[C@@H](NC(=O)[C@H](NC(=O)N1CCN(C3CCN(C(=O)c4c(F)ccc(O)c4Cl)CC3)C1=O)c1cc(F)c(O)c(O)c1Cl)C2` (single isomer, unassigned) [Example 440] was tested. Which IC50 did it give?
**A.** < 10 µM

**Q.** Which IC50 does the source give for `O=C(O)c1c(F)ccc2c1OB(O)[C@@H](NC(=O)C(NC(=O)N1CCN(C3CCN(S(=O)(=O)Cc4cccc(O)c4)CC3)C(=O)C1=O)c1cc(F)c(O)c(O)c1Cl)C2` (stereo partly drawn) [Example 485, (3R)-3-(2-(2-chloro-5-fluoro-3,4-dihydroxyphenyl)-2-(4-(1-((3-hydroxybenzyl)sulfonyl)piperidin-4-yl)-2,3-dioxopiperazine-1-carboxamido)acetamido)-7-fluoro-2-hydroxy-3,4-dihydro-2H-benzo[e][1,2]oxaborinine-8-carboxylic acid] here?
**A.** < 10 µM

**Q.** `O=C(O)c1c(F)ccc2c1OB(O)[C@@H](NC(=O)[C@H](NC(=O)N1CCN(C3CCN(C(=O)Nc4cccc(O)c4Cl)CC3)C1=O)c1cc(F)c(O)c(O)c1Cl)C2` [Example 447, (R)-3-((R)-2-(3-(1-((2-chloro-3-hydroxyphenyl)carbamoyl)piperidin-4-yl)-2-oxoimidazolidine-1-carboxamido)-2-(2-chloro-5-fluoro-3,4-dihydroxyphenyl)acetamido)-7-fluoro-2-hydroxy-3,4-dihydro-2H-benzo[e][1,2]oxaborinine-8-carboxylic acid] was tested. Which IC50 did it give?
**A.** < 10 µM

**Q.** How did the IC50 turn out when `O=C(O)c1c(F)ccc2c1OB(O)[C@@H](NC(=O)[C@H](NC(=O)N1CCN(C3CCN(C(=O)c4cccc(O)c4Cl)CC3)C1=O)c1cc(F)c(O)c(O)c1Cl)C2` (single isomer, unassigned) [Example 432] was run?
**A.** < 10 µM

**Q.** `O=C(O)c1c(F)ccc2c1OB(O)[C@@H](NC(=O)[C@H](NC(=O)N1CCN(Cc3ccc(O)c(O)c3Cl)C(=O)C1=O)c1cccc(P(=O)(O)O)c1)C2` (single isomer, unassigned) [Example 163] was tested. Which IC50 did it give?
**A.** < 10 µM

**Q.** For `O=C(O)c1c(F)ccc2c1OB(O)[C@@H](NC(=O)[C@H](NC(=O)N1CCN(C3CCN(C(=O)c4cc(O)ccc4F)CC3)C1=O)c1cc(F)c(O)c(O)c1Cl)C2` (single isomer, unassigned) [Example 433], which IC50 is on record?
**A.** < 10 µM

**Q.** `O=C(NCCS(=O)(=O)N1CCN(C(=O)N[C@H](C(=O)N[C@H]2Cc3ccc(F)c(C(=O)O)c3OB2O)c2ccc(P(=O)(O)O)cc2)C1=O)c1ccc(O)c(O)c1Cl` [Example 167, (R)-3-((S)-2-(3-((2-(2-chloro-3,4-dihydroxybenzamido)ethyl)sulfonyl)-2-oxoimidazolidine-1-carboxamido)-2-(4-phosphonophenyl)acetamido)-7-fluoro-2-hydroxy-3,4-dihydro-2H-benzo[e][1,2]oxaborinine-8-carboxylic acid] was tested. Which IC50 did it give?
**A.** 10 to 50 µM

**Q.** `O=C(O)c1c(F)ccc2c1OB(O)[C@@H](NC(=O)[C@H](NC(=O)N1CCN(C3CCN(C(=O)c4ccc(F)c(O)c4Cl)CC3)C1=O)c1cc(F)c(O)c(O)c1Cl)C2` [Example 438, (R)-3-((R)-2-(3-(1-(2-chloro-4-fluoro-3-hydroxybenzoyl)piperidin-4-yl)-2-oxoimidazolidine-1-carboxamido)-2-(2-chloro-5-fluoro-3,4-dihydroxyphenyl)acetamido)-7-fluoro-2-hydroxy-3,4-dihydro-2H-benzo[e][1,2]oxaborinine-8-carboxylic acid] was tested. Which IC50 did it give?
**A.** < 10 µM

**Q.** How did the IC50 turn out when `O=C(O)c1c(F)ccc2c1OB(O)[C@@H](NC(=O)[C@H](NC(=O)N1CCN(C3CCN(C(=O)Nc4cc(O)cc(O)c4)CC3)C1=O)c1cc(F)c(O)c(O)c1Cl)C2` [Example 456, (R)-3-((R)-2-(2-chloro-5-fluoro-3,4-dihydroxyphenyl)-2-(3-(1-((3,5-dihydroxyphenyl)carbamoyl)piperidin-4-yl)-2-oxoimidazolidine-1-carboxamido)acetamido)-7-fluoro-2-hydroxy-3,4-dihydro-2H-benzo[e][1,2]oxaborinine-8-carboxylic acid] was run?
**A.** < 10 µM

**Q.** `O=C(O)c1c(F)ccc2c1OB(O)[C@@H](NC(=O)[C@H](NC(=O)N1CCN(C3CCN(C(=O)c4cc(O)cc(O)c4)CC3)C1=O)c1cc(F)c(O)c(O)c1Cl)C2` (single isomer, unassigned) [Example 442] was tested. Which IC50 did it give?
**A.** < 10 µM

**Q.** For `O=C(O)c1c(F)ccc2c1OB(O)[C@@H](NC(=O)[C@H](NC(=O)N1CCN(C3CCN(C(=O)Nc4cccc(O)c4)CC3)C1=O)c1cc(F)c(O)c(O)c1Cl)C2` [Example 445, (R)-3-((R)-2-(2-chloro-5-fluoro-3,4-dihydroxyphenyl)-2-(3-(1-((3-hydroxyphenyl)carbamoyl)piperidin-4-yl)-2-oxoimidazolidine-1-carboxamido)acetamido)-7-fluoro-2-hydroxy-3,4-dihydro-2H-benzo[e][1,2]oxaborinine-8-carboxylic acid], which IC50 is on record?
**A.** < 10 µM

**Q.** How did the IC50 turn out when `O=C(O)c1c(F)ccc2c1OB(O)[C@@H](NC(=O)[C@H](NC(=O)N1CCN(C3CCN(C(=O)Nc4cc(O)ccc4F)CC3)C1=O)c1cc(F)c(O)c(O)c1Cl)C2` (single isomer, unassigned) [Example 451] was run?
**A.** < 10 µM

**Q.** How did the IC50 turn out when `O=C(O)c1c(F)ccc2c1OB(O)[C@@H](NC(=O)[C@H](NC(=O)N1CCN(C3CCN(C(=O)c4cc(O)ccc4Cl)CC3)C1=O)c1cc(F)c(O)c(O)c1Cl)C2` (single isomer, unassigned) [Example 434] was run?
**A.** < 10 µM

**Q.** Which IC50 does the source give for `O=C(O)c1c(F)ccc2c1OB(O)[C@@H](NC(=O)[C@H](NC(=O)N1CCN(C3CCN(C(=O)c4cc(F)c(F)c(O)c4F)CC3)C1=O)c1cc(F)c(O)c(O)c1Cl)C2` (single isomer, unassigned) [Example 441] here?
**A.** < 10 µM
